Reference: patent US7858578B2, “Methods of inducing neuronal growth by a Fucose-α(1-2) galactose (fuc-α(1-2) gal) moiety and a lectin” (California Institute of Technology, priority 2004, dated 2010)

Key:
hippocampal neurons [1] = test: Neurite outgrowth of hippocampal neurons treated with carbohydrate-PAA conjugates; assay type: cell-based, rat; settings: FIG. 4B, concentration and valency series
Description: Hippocampal neurons were cultured using a procedure modified from Goslin and Banker, in Culturing Nerve Cells, Banker, G., Goslin, K., Eds., pp. 251-281, MIT Press: Cambridge, Mass. 1991. Briefly, the hippocampi of embryonic day 18 (E18) rats were dissected and transferred to 4.5 mL of ice-cold Calcium and Magnesium Free-Hank's Balanced Salt Solution (CMF-HBSS). Trypsin (2.5%, no EDTA) was added to 5 mL, and the tissue was incubated for 15 min at 37° C. The trypsin solution was removed and the tissue sample washed three times with 5 mL of CMF-HBSS. Cells were then dissociated from the tissue in 1 mL of CMF-HBSS by passing through a P1000 pipet tip twenty times. The cells were counted, diluted into Minimal Eagle's Medium (MEM) plus 10% fetal bovine serum, and seeded on poly-DL-ornithine-coated glass coverslips (Carolina Biological) at a density of 75 cells/mm2 (100 μL/coverslip) for 30 min. […]
The association of Fucα(1-2)Gal with potential lectins was studied to determine if it would stimulate neuronal growth. […] The cultures were incubated in 5% CO2 at 37° C. and analyzed. […]
For each experiment, 50 randomly selected cells were analyzed per coverslip using similar quantitative analysis techniques reported by Schmid et al., J. Neurosci. […] Briefly, only neurites longer than ˜10 μm and not in contact with other cells were measured using NIH Image 1.62 software. […]

hippocampal neurons [2] = test: Binding of biotinylated probe to cultured hippocampal neurons (streptavidin-AlexaFluor 488 imaging); assay type: cell-based, rat; settings: 3 mM, 10 μM PAO; for labeling of neurons after de-lipidation: neurons de-lipidated with MeOH/CHCl3; for binding to hippocampal neurons: 1 h, E18 neurons 23 days in vitro
Description: Hippocampal neurons were cultured using a procedure modified from Goslin and Banker, in Culturing Nerve Cells, Banker, G., Goslin, K., Eds., pp. 251-281, MIT Press: Cambridge, Mass. 1991. Briefly, the hippocampi of embryonic day 18 (E18) rats were dissected and transferred to 4.5 mL of ice-cold Calcium and Magnesium Free-Hank's Balanced Salt Solution (CMF-HBSS). Trypsin (2.5%, no EDTA) was added to 5 mL, and the tissue was incubated for 15 min at 37° C. The trypsin solution was removed and the tissue sample washed three times with 5 mL of CMF-HBSS. Cells were then dissociated from the tissue in 1 mL of CMF-HBSS by passing through a P1000 pipet tip twenty times. The cells were counted, diluted into Minimal Eagle's Medium (MEM) plus 10% fetal bovine serum, and seeded on poly-DL-ornithine-coated glass coverslips (Carolina Biological) at a density of 75 cells/mm2 (100 μL/coverslip) for 30 min. After this time, 500 μL of supplemented Neurobasal medium (47.5 mL Neurobasal medium without Lglutamine; 0.5 mL L-glutamine (200 mM); 0.5 mL penicillin/streptomycin (10,000 U/mL); 0.5 mL antibiotic-antimycotic (100× stock), 1.0 mL B-27 serum-free supplement (50× stock); 50 μL of 0.5 M kynurenic acid in 1 N NaOH) was added to each coverslip. The use of kynurenic acid to block glutamate receptor ion channels and enhance neuronal health and survival is standard protocol for neuronal cultures. Id. The cultures were maintained in 5% CO2 at 37° C. in supplemental Neurobasal medium.
After 23 days in culture, the medium was replaced, and neurons were treated with the endocytosis inhibitor phenylarsine oxide (PAO; 4 μL in DMSO, final concentration 10 μM) (Nouel, D., et al., J. Neurosci. 17:1795-1803 (1997)) and either compound III (24 μL in PBS, final concentration 3 mM), or biotin (24 μL in PBS, final concentration 3 mM), in supplemented Neurobasal medium (400 μL final volume) for 1 h at 37° C., 5% CO2. After 1 h, neurons were rinsed 2 times with PBS, fixed in 4% paraformaldehyde for 20 min at rt, washed 2 times with PBS, permeabilized in 0.3% Triton X-100 for 5 min at rt, and washed 2 times with PBS. Non-specific binding was blocked with 3% BSA for 1 h at rt and then rinsed one time with PBS. Compound III was detected with streptavidin conjugated to AlexaFluor 488 (1:200, Molecular Probes). Dye-conjugated streptavidin was added in 3% BSA for 1 h at 37° C. and the excess reagent washed off 5 times with PBS. Coverslips were then mounted onto slides with Vectashield, sealed, and imaged using confocal laser microscopy. Results can be seen in FIG. 2.
De-lipidation was performed on some samples following the protocol of Yavin, E. et al., J. Neurosci. Res. 9:229-237 (1983). Briefly, after 23 days in culture, cells were rinsed once with PBS then exposed to MeOH/CHCl3 (½ by vol.) for 15 min at −80° C. This procedure fixes the cells to the coverslip and extracts cellular lipids. After removing the MeOH/CHCl3 mixture, coverslips were dried at rt then incubated with 3% BSA for 1 hr at rt. After one rinse with PBS, neurons were treated with PAO and the procedure described above was followed.

C[C@@H]1O[C@@H](O[C@H]2[C@H](OCCOCCNC(=O)CCCC[C@@H]3SC[C@@H]4NC(=O)N[C@@H]43)O[C@H](CO)[C@H](O)[C@@H]2O)[C@@H](O)[C@H](O)[C@@H]1O [Compound III]
neurite outgrowth activity (hippocampal neurons [1]): only modest activity
labeling of neurons after de-lipidation (hippocampal neurons [2]): labeling was not diminished
labeling of neurons after de-lipidation (hippocampal neurons [2]; listed as probe III): does not alter the labeling
binding to hippocampal neurons (hippocampal neurons [2]): binds
binding to hippocampal neurons (hippocampal neurons [2]; listed as compound III): binding of compound III to the cell body and neurite processes
